These compounds were tested on NCI-H460 (assay: Antiproliferative activity against human NCI-H460 cells harboring DOT1L R231Q mutant (unknown origin) (1 to 416 residues) assessed as inhibition of cell proliferation incubated for 72 hrs by CCK-8 assay). Details: NCI-H460, 72 h.
Format: functional, cell-based
`CN(CCCNC(=O)Nc1ccc(C(C)(C)C)cc1)CC1CCCN(c2ncnc3[nH]cnc23)C1` (centres undefined) was tested, and the IC50 was 64.3 µM.
Compound `CN(CCCNC(=O)Nc1ccc(C(C)(C)C)cc1)CC1(O)CCN(c2nc(N)nc3[nH]cnc23)C1` (centres undefined) has an IC50 of 44.9 µM.
`CN(CCCNC(=O)Nc1ccc(C(C)(C)C)cc1)CC1(O)CCN(c2ncnc3[nH]cc(Br)c23)C1` (centres undefined) was tested, and the IC50 was 40.6 µM.
`CC(C)N(CCCNC(=O)Nc1ccc(C(C)(C)C)cc1)CC1CCCN(c2ncnc3[nH]cnc23)C1` (centres undefined) was tested, and the IC50 was 66.5 µM.
Compound `CC(C)N(CCCNC(=O)Nc1ccc(C(C)(C)C)cc1)CC1(O)CCN(c2nc(Cl)nc3[nH]ccc23)C1` (centres undefined) has an IC50 of 25.6 µM.
`CC(C)N(CCCNC(=O)Nc1ccc(C(C)(C)C)cc1)CC1(O)CCN(c2ncnc3[nH]cc(Br)c23)C1` (centres undefined) gave an IC50 of 45.3 µM.
Compound `COC(=O)CCN(CCCNC(=O)Nc1ccc(C(C)(C)C)cc1)CC1(O)CCN(c2ncnc3[nH]cnc23)C1` (centres undefined) has an IC50 greater than 100 µM.
For `CN(CCCNC(=O)Nc1ccc(C(C)(C)C)cc1)CC1(O)CCN(c2nc(Cl)nc3ccsc23)C1` (centres undefined), the IC50 was 50.8 µM.
With `CC(C)(C)c1ccc(NC(=O)NCCCN(CCC(=O)N2CCSCC2)CC2(O)CCN(c3ncnc4[nH]cnc34)C2)cc1` (centres undefined) the IC50 was 89.6 µM.
`CC(C)(C)c1ccc(NC(=O)NCCCN(CCO)CC2(O)CCN(c3nc(N)nc4[nH]cnc34)C2)cc1` (centres undefined) showed an IC50 of 52.6 µM.
With `CC(C)(C)c1ccc(NC(=O)NCCCN(CCCN2CCOCC2)CC2(O)CCN(c3nc(Cl)nc4[nH]cnc34)C2)cc1` (centres undefined) the IC50 was 9.59 µM.
For `COC(=O)CCN(CCCNC(=O)Nc1ccc(C(C)(C)C)cc1)CC1(O)CCN(c2nc(Cl)nc3[nH]ncc23)C1` (centres undefined), the IC50 was 28.4 µM.
In the case of `CC(C)N(CCCNC(=O)Nc1ccc(C(C)(C)C)cc1)CC1(O)CCN(c2nc(N)nc3[nH]cnc23)C1` (centres undefined), the IC50 is reported as 35.7 µM.
`CC(C)(C)c1ccc(NC(=O)NCCCN(CCC(=O)N2CCSCC2)CC2(O)CCN(c3nc(Cl)nc4[nH]ncc34)C2)cc1` (centres undefined) was tested, and the IC50 was 16.2 µM.
`CC(C)(C)c1ccc(NC(=O)NCCCN(CCCN2CCOCC2)CC2(O)CCN(c3ncnc4[nH]cc(Br)c34)C2)cc1` (centres undefined) showed an IC50 of 36.5 µM.
`CC(C)N(CCCNC(=O)Nc1ccc(C(C)(C)C)cc1)CC1(O)CCN(c2nc(Cl)nc3[nH]cnc23)C1` (centres undefined) was tested, and the IC50 was 13.8 µM.
In the case of `COC(=O)CCN(CCCNC(=O)Nc1ccc(C(C)(C)C)cc1)CC1(O)CCN(c2nc(Cl)nc3[nH]cnc23)C1` (centres undefined), the IC50 is reported as 30.9 µM.
In the case of `CN(CCCNC(=O)Nc1ccc(C(C)(C)C)cc1)CC1CCCN(C(=O)c2cnccn2)C1` (centres undefined), the IC50 is reported as greater than 100 µM.
Compound `CC(C)(C)c1ccc(NC(=O)NCCCN(CCCN2CCOCC2)CC2(O)CCN(c3nc(Cl)nc4[nH]ncc34)C2)cc1` (centres undefined) has an IC50 of 7.15 µM.
In the case of `CC(C)N(CCCNC(=O)Nc1ccc(C(C)(C)C)cc1)CC1(O)CCN(c2ncnc3[nH]ccc23)C1` (centres undefined), the IC50 is reported as 83.9 µM.
In the case of `CC(C)N(CCCNC(=O)Nc1ccc(C(C)(C)C)cc1)CC1CCCN(c2cc(C#N)ccn2)C1` (centres undefined), the IC50 is reported as greater than 100 µM.

Each compound was assayed on NCI-H460 (assay: Antiproliferative activity against human NCI-H460 cells harboring wildtype DOT1L (unknown origin) (1 to 416 residues) assessed as inhibition of cell proliferation incubated for 72 hrs by CCK-8 assay). Details: NCI-H460, 72 h.
Format: functional, cell-based
With `CN(CCCNC(=O)Nc1ccc(C(C)(C)C)cc1)CC1CCCN(c2ncnc3[nH]cnc23)C1` (centres undefined) the IC50 was 68.6 µM.
`CN(CCCNC(=O)Nc1ccc(C(C)(C)C)cc1)CC1(O)CCN(c2nc(N)nc3[nH]cnc23)C1` (centres undefined) was tested, and the IC50 was 23.8 µM.
`CN(CCCNC(=O)Nc1ccc(C(C)(C)C)cc1)CC1(O)CCN(c2ncnc3[nH]cc(Br)c23)C1` (centres undefined) was tested, and the IC50 was 38.7 µM.
`CC(C)N(CCCNC(=O)Nc1ccc(C(C)(C)C)cc1)CC1CCCN(c2ncnc3[nH]cnc23)C1` (centres undefined) was tested, and the IC50 was 64.7 µM.
`CC(C)N(CCCNC(=O)Nc1ccc(C(C)(C)C)cc1)CC1(O)CCN(c2nc(Cl)nc3[nH]ccc23)C1` (centres undefined) was tested, and the IC50 was 17.6 µM.
`CC(C)N(CCCNC(=O)Nc1ccc(C(C)(C)C)cc1)CC1(O)CCN(c2ncnc3[nH]cc(Br)c23)C1` (centres undefined) showed an IC50 of 35.2 µM.
For `COC(=O)CCN(CCCNC(=O)Nc1ccc(C(C)(C)C)cc1)CC1(O)CCN(c2ncnc3[nH]cnc23)C1` (centres undefined), the IC50 was greater than 100 µM.
`CN(CCCNC(=O)Nc1ccc(C(C)(C)C)cc1)CC1(O)CCN(c2nc(Cl)nc3ccsc23)C1` (centres undefined) showed an IC50 of 27.7 µM.
With `CC(C)(C)c1ccc(NC(=O)NCCCN(CCC(=O)N2CCSCC2)CC2(O)CCN(c3ncnc4[nH]cnc34)C2)cc1` (centres undefined) the IC50 was greater than 100 µM.
`CC(C)(C)c1ccc(NC(=O)NCCCN(CCO)CC2(O)CCN(c3nc(N)nc4[nH]cnc34)C2)cc1` (centres undefined) showed an IC50 of 31.2 µM.
Compound `CC(C)(C)c1ccc(NC(=O)NCCCN(CCCN2CCOCC2)CC2(O)CCN(c3nc(Cl)nc4[nH]cnc34)C2)cc1` (centres undefined) has an IC50 of 31.4 µM.
Work on `COC(=O)CCN(CCCNC(=O)Nc1ccc(C(C)(C)C)cc1)CC1(O)CCN(c2nc(Cl)nc3[nH]ncc23)C1` (centres undefined) yielded an IC50 of 61.7 µM.
`CC(C)N(CCCNC(=O)Nc1ccc(C(C)(C)C)cc1)CC1(O)CCN(c2nc(N)nc3[nH]cnc23)C1` (centres undefined) gave an IC50 of 25.6 µM.
`CC(C)(C)c1ccc(NC(=O)NCCCN(CCC(=O)N2CCSCC2)CC2(O)CCN(c3nc(Cl)nc4[nH]ncc34)C2)cc1` (centres undefined) showed an IC50 of 44 µM.
Work on `CC(C)(C)c1ccc(NC(=O)NCCCN(CCCN2CCOCC2)CC2(O)CCN(c3ncnc4[nH]cc(Br)c34)C2)cc1` (centres undefined) yielded an IC50 of 45.6 µM.
`CC(C)N(CCCNC(=O)Nc1ccc(C(C)(C)C)cc1)CC1(O)CCN(c2nc(Cl)nc3[nH]cnc23)C1` (centres undefined) gave an IC50 of 5.33 µM.
With `COC(=O)CCN(CCCNC(=O)Nc1ccc(C(C)(C)C)cc1)CC1(O)CCN(c2nc(Cl)nc3[nH]cnc23)C1` (centres undefined) the IC50 was 72.6 µM.
In the case of `CN(CCCNC(=O)Nc1ccc(C(C)(C)C)cc1)CC1CCCN(C(=O)c2cnccn2)C1` (centres undefined), the IC50 is reported as greater than 100 µM.
Work on `CC(C)(C)c1ccc(NC(=O)NCCCN(CCCN2CCOCC2)CC2(O)CCN(c3nc(Cl)nc4[nH]ncc34)C2)cc1` (centres undefined) yielded an IC50 of 18.9 µM.
For `CC(C)N(CCCNC(=O)Nc1ccc(C(C)(C)C)cc1)CC1(O)CCN(c2ncnc3[nH]ccc23)C1` (centres undefined), the IC50 was 54.4 µM.
`CC(C)N(CCCNC(=O)Nc1ccc(C(C)(C)C)cc1)CC1CCCN(c2cc(C#N)ccn2)C1` (centres undefined) showed an IC50 greater than 100 µM.

These compounds were tested on NCI-H460 (assay: Antiproliferative activity against human NCI-H460 cells harboring DOT1L R231Q mutant assessed as inhibition of cell proliferation incubated for 72 hrs by CCK-8 assay). Details: NCI-H460, 72 h.
Format: functional, cell-based
With `CC(C)(C)C(=O)Nc1ccc2nc(CN3CCC(N(CCCN4CCOCC4)C[C@H]4O[C@@H](n5cnc6c(N)ncnc65)[C@H](O)[C@@H]4O)CC3)[nH]c2c1` the IC50 was 6.18 µM.

What follows are compounds tested on NCI-H460 (assay: Antitumor activity against human NCI-H460 cells harboring DOT1L R231Q OE mutant xenografted in male BALB/c-nu mouse model assessed as tumor growth inhibition at 20 mg/kg, ip administered five times a week for 3 weeks relative to control). Details: NCI-H460, 504 h, read-out: TGI.
Format: functional
Compound `CC(C)(C)C(=O)Nc1ccc2nc(CN3CCC(N(CCCN4CCOCC4)C[C@H]4O[C@@H](n5cnc6c(N)ncnc65)[C@H](O)[C@@H]4O)CC3)[nH]c2c1` has an inhibition in vivo at 20 mg/kg of 54.4%.

— ChEMBL document CHEMBL5608241, “Discovery of Novel Non-nucleoside DOT1LR231Q Inhibitors with Improved Pharmacokinetic Properties and Anti-lung Cancer Efficacy” (J Med Chem, 2024)
